Results: patent US10376480B2, “Biguanide derivative, a preparation method thereof, and a pharmaceutical composition containing the biguanide derivative as an active ingredient” (Immunomet Therapeutics Inc., priority 2010, dated 2019)
pIC50: −log10 of the molar value.

Tests used:
[1] = test system: HCT116 cells; test: Inhibition of cancer cell proliferation (MTT, GIC50); format: cell-based; conditions: Homo sapiens, HCT-116, 48 hours incubation
Experimental: HCT116 cells derived from human colorectal cancer were used, and an effect of a biguanide derivative on the inhibition of cancer cell proliferation was confirmed by measuring a concentration value (cell growth inhibition concentration, GIC50) at which 50% of the cell growth was inhibited using a 3-(4,5-dimethylthiazol-2-yl)-2,5-diphenytetrazolium bromide (MTT) reagent.
First, HCT116 cells were put on a 96-well plate and cultured in a DMEM medium containing 10% bovine serum for 24 hours to each have cell count of approximately 5000. Subsequently, to obtain the GIC50 value of each compound, 100 μM (or 200 μM), 25 μM, 6.25 μM, 1.56 μM or 0.39 μM of the compound was treated to each culture medium and then incubated for 48 hours. To confirm living cells after treatment with the compound, MTT was added to each culture medium and further incubated for 3 hours. Generated formazane crystal was dissolved using dimethyl sulfoxide (DMSO) and absorbance of the solution was measured at 560 nm. After the 48-hour incubation, a ratio of a cell count cultured on a well plate not treated with the compound to a cell count on a well plate treated with compounds synthesized in the examples was indicated as cell viability (%) according to each administered concentration. A cell viability curve was plotted using the cell viability (%), and the calculated concentration value (GIC50) of the compound, at which 50% of the growth was inhibited was, to confirm an effect on the inhibition of cancer cell proliferation.

[2] = test system: 5′-AMP-activated protein kinase (AMPK); test: AMPK activation (AMPKα Thr172 phosphorylation immunoassay) in MCF7 cells; format: cell-based, human; conditions: MCF7 cells; for AMPK Activation (phosphorylated AMPKα Thr172): 50 μM compound, 24 hours; for fold induction at 50 µM: Homo sapiens, 24 h, 50 μM vs. 0 (cells without compound)
Experimental: MCF7 cells derived from human breast cancer cells were used, and an effect of a biguanide derivative on 5′-AMP-activated protein kinase (AMPK) activation was confirmed using an AMPKα immunoassay kit (Invitrogen, catalog No. KHO0651).
The MCF7 cells were put on a 6-well plate and incubated in a DMEM medium containing 10% fetal bovine serum in an incubator to which 5% CO2 was supplied to have a cell count of approximately 5×10^5. 50 μM of derivatives synthesized in the examples were treated to the each culture medium, and the cells were incubated for 24 hours. Subsequently, the cells were lysed by a method presented in the operation manual of the AMPKα immunoassay kit, and 20 μg of cell lysates were yielded through protein assay. A degree of phosphorylation of an AMPKα threonine 172nd residue (Thr172) from the cell lysates were confirmed according to a method presented in the operation manual of the AMPKα immunoassay kit to thereby obtain results.
In addition, an experiment was performed in the same manner as described in Experimental Example 2 using metformin as a control group, and the results of an effect on AMPK activation were compared to the effect on AMPK activation when 1 mM metformin was treated.

SMILES | melting point [°C] | pIC50 [1] | AMPK Activation (phosphorylated AMPKα Thr172) [2] | fold induction at 50 µM [2]
CCCN(CCC)C(=N)NC(=N)N(CC)CC.Cl [Example 37, N1,N1-dipropyl-N5,N5-diethyl Biguanide Hydrochloride] | 151 to 152 | < 4.00 | 33.3 | 6.3
CCC(C)NC(=N)NC(=N)N(C)C.Cl (stereo not drawn) [Example 19, N1,N1-dimethyl-N5-(butane-2-yl) Biguanide Hydrochloride] | 110 to 112 | < 3.70 | 3.6 | 0.7
CNC(=N)NC(=N)N(C)C.Cl [Example 17, N1,N1,N5-trimethyl Biguanide Hydrochloride] | 175 to 177 | < 3.70 | 5.5 | 1.1
CN(Cc1ccccc1)C(=N)NC(=N)N(C)Cc1ccccc1.Cl [Example 40, N1,N1,N5,N5-bis((benzyl)(methyl)) Biguanide Hydrochloride] | 141 to 142 | < 4.00 | 11.3 | 1.7
Cl.N=C(NCCc1ccccc1)NC(=N)NCC1CC1 [Example 14, N1-(phenethyl)-N5-cyclopropylmethyl Biguanide Hydrochloride] | 143 to 146 | 4.33 | 31.2 | 5.9
CCCN(CCC)C(=N)NC(=N)N(C)CCc1ccccc1.Cl [Example 38, N1,N1-dipropyl-N5,N5-(methyl)(phenethyl) Biguanide Hydrochloride] | 110 to 111 | 4.44 | 35.8 | 6.8
CN(C)C(=N)NC(=N)NCCc1ccccc1.Cl [Example 29, N1,N1-dimethyl-N5-(phenethyl) Biguanide Hydrochloride] | 155 to 157 | < 3.70 | 14.7 | 2.8
CN(C)C(=N)NC(=N)NCc1cccnc1.Cl [Example 27, N1,N1-dimethyl-N5-(pyridine-3-yl)methyl Biguanide Hydrochloride] | 112 to 114 | < 3.70 | 4.6 | 0.9
CCN(CC)C(=N)NC(=N)Nc1cccc(Cl)c1.Cl [Example 30, N1,N1-diethyl-N5-(3-chloro)phenyl Biguanide Hydrochloride] | 219 to 220 | 4.55 | 19.3 | 7.7
